Reference: paper PMC9266216, “Chemical Characterization, α-Glucosidase, α-Amylase and Lipase Inhibitory Properties of the Australian Honey Bee Propolis” (Foods, 2022)
pIC50: −log10 of the molar value.

Legend:
[1] = molecular target: T1, human salivary α-amylase (Homo sapiens, UniProt P0DUB6); experiment: α-amylase inhibition assay (CNP-G3, absorbance 405 nm); format: biochemical; conditions: for pIC50: 120 min incubation, pH 6.0, 37 °C
T1 construct: purchased Sigma Aldrich
T1 sequence (P0DUB6 16-511): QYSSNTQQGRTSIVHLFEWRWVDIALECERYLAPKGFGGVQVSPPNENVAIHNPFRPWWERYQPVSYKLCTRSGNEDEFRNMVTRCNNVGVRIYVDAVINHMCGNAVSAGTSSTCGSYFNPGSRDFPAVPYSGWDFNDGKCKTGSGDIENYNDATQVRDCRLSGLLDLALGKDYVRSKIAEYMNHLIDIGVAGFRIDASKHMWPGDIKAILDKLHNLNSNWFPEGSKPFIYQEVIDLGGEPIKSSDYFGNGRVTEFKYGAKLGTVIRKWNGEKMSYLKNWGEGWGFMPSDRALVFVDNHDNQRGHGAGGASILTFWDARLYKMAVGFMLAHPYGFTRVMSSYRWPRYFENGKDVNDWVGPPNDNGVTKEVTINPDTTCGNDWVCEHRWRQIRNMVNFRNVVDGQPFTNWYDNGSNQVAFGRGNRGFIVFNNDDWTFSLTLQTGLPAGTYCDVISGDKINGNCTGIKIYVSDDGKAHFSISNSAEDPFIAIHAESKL
Method: The α-amylase inhibition assay was performed in 96-well microtiter plates. In each well was added 10 μL of propolis sample dissolved in DMSO, and 90 μL of 0.1 M phosphate buffer adjusted to pH 6.0 using 2.0 M H3PO4. To the solution, 80 μL of human salivary α-amylase solution (2.0 U/mL) was added and incubated for approximately 10 min at 37 °C. The enzyme reaction was initiated by adding 20 μL of the substrate solution CNP-G3 (10 mM in phosphate buffer). […] The percentage inhibition was calculated using the same formula as described for the α-glucosidase inhibition assay.

[2] = molecular target: T2, porcine pancreas lipase (Sus scrofa, UniProt P00591); experiment: lipase inhibition assay (p-NPB, absorbance 405 nm); format: biochemical; conditions: for pIC50: 60 min incubation, pH 7.4, 37 °C
T2 construct: purchased Sigma Aldrich
T2 sequence (P00591 1-450): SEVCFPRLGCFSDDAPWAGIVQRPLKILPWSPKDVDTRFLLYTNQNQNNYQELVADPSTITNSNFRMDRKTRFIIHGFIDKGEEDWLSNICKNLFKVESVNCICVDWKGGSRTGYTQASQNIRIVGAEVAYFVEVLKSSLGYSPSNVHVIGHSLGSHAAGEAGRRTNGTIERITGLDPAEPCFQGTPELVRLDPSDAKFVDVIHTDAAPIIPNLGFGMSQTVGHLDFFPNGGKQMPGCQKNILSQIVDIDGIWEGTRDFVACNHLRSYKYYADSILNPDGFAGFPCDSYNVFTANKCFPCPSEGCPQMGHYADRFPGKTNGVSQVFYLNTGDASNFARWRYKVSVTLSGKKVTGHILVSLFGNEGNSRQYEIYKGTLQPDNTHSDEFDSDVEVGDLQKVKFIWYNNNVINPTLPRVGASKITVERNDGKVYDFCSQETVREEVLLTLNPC
Method: The solvents used for extraction (ethanol—EtOH), HPLC (acetonitrile—MeCN), and LC–MS (MeCN and water—H2O) analyses were purchased from Merck. The ultra-pure water used for the HPLC analysis was from an in-house Milli-Q system.
The lipase inhibition assay was performed in 96-well microtiter plates. In each well was added 10 μL of propolis sample dissolved in DMSO and 155 μL of 0.1 M tris-HCl buffer adjusted to pH 7.4 using 1.0 M KOH. To the solution, 25 μL of lipase solution (2000 U/mL) was added and incubated for approximately 15 min at 37 °C. The enzyme reaction was initiated by adding 10 μL of the substrate solution p-NPB (100 mM in methanol). The colorimetric absorbance of the cleavage product after 60 min of incubation was measured at 405 nm, using the EnSpire microplate reader (Perkin Elmer). […] The percentage inhibition was calculated using the same formula as described for the α-glucosidase inhibition assay.

[3] = molecular target: α-glucosidase (Saccharomyces cerevisiae, UniProt P53341); experiment: biochemical; conditions: read-out: α-Glucosidase inhibition
Chain of α-glucosidase (P53341 whole entry): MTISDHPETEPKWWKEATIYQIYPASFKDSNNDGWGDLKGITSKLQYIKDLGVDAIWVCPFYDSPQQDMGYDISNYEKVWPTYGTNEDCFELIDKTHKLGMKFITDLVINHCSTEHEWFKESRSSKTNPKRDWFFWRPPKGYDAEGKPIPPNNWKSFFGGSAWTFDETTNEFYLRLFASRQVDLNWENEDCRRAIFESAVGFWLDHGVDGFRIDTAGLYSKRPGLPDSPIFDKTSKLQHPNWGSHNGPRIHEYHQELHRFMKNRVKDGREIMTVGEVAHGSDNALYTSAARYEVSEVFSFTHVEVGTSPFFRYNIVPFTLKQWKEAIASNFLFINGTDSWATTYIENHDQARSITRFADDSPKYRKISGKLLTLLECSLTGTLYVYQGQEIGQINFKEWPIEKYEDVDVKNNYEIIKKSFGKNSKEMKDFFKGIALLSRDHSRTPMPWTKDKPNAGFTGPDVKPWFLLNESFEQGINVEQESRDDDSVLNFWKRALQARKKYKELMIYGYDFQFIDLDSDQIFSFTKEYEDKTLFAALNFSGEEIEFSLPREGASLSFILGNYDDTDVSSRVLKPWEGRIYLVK
Method: The α-glucosidase inhibition assay was performed at room temperature in 96-well microtiter plates (Sigma Aldrich, Sydney, Australia). The assays were adapted from Zhao et al., with some modifications. Briefly, in each well was added 10 μL of propolis sample at 2 mg/mL in DMSO and 90 μL of 0.1 M phosphate buffer, adjusted to pH 7.5 using 0.6 M KOH. To the solution, 80 μL of α-glucosidase solution (2.0 U/mL) was added and incubated for 10 min at room temperature. The enzyme reaction was initiated by adding 20 μL of p-NPG solution (10 mM in phosphate buffer). The colorimetric absorbance of the cleavage product (the strongly chromogenic p-nitrophenolate ion) after 30 min of incubation was measured at 405 nm using the EnSpire microplate reader (Perkin Elmer, Boston, MA, USA). […] The results were analyzed and calculated in Microsoft Excel, and expressed using the mean for each of the triplicate sets. Inhibition of the enzyme was calculated as follows: Inhibition (%)=(1−Absorbance (sample)/Absorbance (blank) )×100%)

pIC50 [1] | pIC50 [2] | Compound | inhibition at 250 µM [1] | inhibition at 250 µM [3] | inhibition at 83 µM [2]
3.69 | 4.29 | CC(C)=CCC/C(C)=C/Cc1c([C@@H]2CC(=O)c3c(O)cc(O)cc3O2)ccc(O)c1O [Compound 1, propolin D (Nymphaeol B)] | – | – | –
3.87 | 4.28 | CC(C)=CCC/C(C)=C/Cc1cc([C@@H]2CC(=O)c3c(O)cc(O)cc3O2)cc(O)c1O [Compound 2, propolin F (Isonymphaeol B)] | – | – | –
3.69 | 4.52 | CC(C)=CCC/C(C)=C/Cc1c(O)cc2c(c1O)C(=O)C[C@@H](c1ccc(O)c(O)c1)O2 [Compound 3, propolin C (Nymphaeol A)] | – | – | –
3.61 | 4.36 | CC(C)=CCC/C(C)=C/Cc1c([C@@H]2CC(=O)c3c(cc(O)c(CC=C(C)C)c3O)O2)ccc(O)c1O [Compound 5, propolin G (Nymphaeol C)] | – | – | –
3.85 | 4.49 | CC(C)=CCC/C(C)=C/Cc1c(-c2oc3cc(O)cc(O)c3c(=O)c2O)ccc(O)c1O [Compound 6, solophenol D] | – | – | –
– | – | O=C1C[C@@H](c2ccc(O)c(O)c2)Oc2cc(O)cc(O)c21 [Compound 7, eriodictyol, reference compound] | 41% | 13% | 12%

Compound | pIC50 [1] | pIC50 [2] | inhibition at 250 µM [1] | inhibition at 250 µM [3] | inhibition at 83 µM [2]
CC(C)=CCC/C(C)=C/Cc1cc([C@@H]2CC(=O)c3c(O)cc(O)cc3O2)ccc1O [Compound 4, propolin H (3′-geranyl-naringenin)] | 4.28 | 4.48 | – | – | –
O=C1C[C@@H](c2ccc(O)cc2)Oc2cc(O)cc(O)c21 [Compound 8, naringenin, reference compound] | 3.92 | – | 73% | 40% | 24%
O=c1c(O)c(-c2ccc(O)c(O)c2)oc2cc(O)cc(O)c12 [Compound 9, quercetin, reference compound] | 4.76 | – | – | – | 37%
